Source: US8143419B2, “Trisubstituted 1,2,4-triazoles” (Janssen Pharmaceutica N. V., priority 2006, dated 2012)
Where a name gives a salt, the structure may show the parent alone.

What was measured:
hα7-wt nAChR = molecular target: T1, hα7-wt nAChR (Homo sapiens, UniProt P36544); assay: Ca2+ flux imaging (FDSS) (Protocol B), PAM activity with choline as agonist; assay type: cell-based; conditions: for EC50: "<5" = no top plateau at maximal concentration; for Emax: read-out: % efficacy
T1 construct: expressed in transfected cells
T1 sequence (P36544 23-502): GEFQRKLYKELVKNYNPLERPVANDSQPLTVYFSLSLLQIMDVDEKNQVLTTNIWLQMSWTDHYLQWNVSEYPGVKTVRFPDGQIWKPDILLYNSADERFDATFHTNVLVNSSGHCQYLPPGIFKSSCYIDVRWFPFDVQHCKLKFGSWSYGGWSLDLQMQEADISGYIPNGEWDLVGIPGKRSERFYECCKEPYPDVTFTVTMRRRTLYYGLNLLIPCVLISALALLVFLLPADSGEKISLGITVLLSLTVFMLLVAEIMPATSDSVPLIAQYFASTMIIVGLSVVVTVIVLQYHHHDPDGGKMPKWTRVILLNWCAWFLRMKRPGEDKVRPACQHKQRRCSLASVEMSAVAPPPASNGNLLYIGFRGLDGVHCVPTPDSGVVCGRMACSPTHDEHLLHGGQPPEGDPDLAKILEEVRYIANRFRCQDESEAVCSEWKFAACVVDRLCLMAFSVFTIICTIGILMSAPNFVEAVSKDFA
Description: • Hanks buffered saline solution (HBSS, Invitrogen, Belgium), supplemented with 10 mM HEPES (Invitrogen, Belgium), CaCl2 to a final concentration of 5 mM, 0.1% Bovine serum albumin (Sigma-Aldrich NV, Belgium). b) Calcium-Sensitive Dye—Fluo-4AM • Fluo-4AM (Molecular Probes, USA) was dissolved in DMSO containing 10% Pluronic acid (Molecular Probes, USA) to give a stock solution which was diluted in assay buffer supplemented with 5 mM probenicid (Sigma, Aldrich NV, Belgium) to give a final concentration of 2 μM. c) 384-Well Plates • Black 384 well plate black/clear plates, PDL pre-coated (Corning, Incorporated, USA) d) Calcium Flux Measurement
A Functional drug screening system (FDSS, Hamamatsu) was used to measure intracellular free-calcium flux signals.
Monolayers of hα7-wt nAChR-expressing cells were grown in multi-well plates, in particular black-sided, transparent bottomed 384 well plates coated with poly-D-lysine for 24 hours prior to loading with a fluorescent calcium indicator, in a particular embodiment loading with fluo-4AM for up to 120 minutes.
PAM activity was detected in real time by applying the compounds to be tested to the loaded cells along with a α7 nicotinic receptor agonist during constant monitoring of cellular fluorescence in a FDSS. Compounds giving peak fluorescent responses greater than the response due to agonist alone, were considered to be α7 nAChR PAM's. In a particular embodiment, the α7 nicotinic receptor agonist was choline, a more particular embodiment choline applied at a sub-maximal concentration of 100 μM. In a further setting of the present invention the compounds to be tested were applied prior to the α7 nicotinic receptor agonist, in a particular embodiment up to 10 minutes prior to the agonist.
A control response to choline was calculated on each plate from the difference in peak in fluorescence in wells receiving either choline or assay buffer alone. Compounds of the present invention were tested at a concentration range from 0.01 μM to 30 μM. Compounds were considered to have an interesting activity when they potentiated the choline signal at least with 500% when tested at a concentration of 30 μM (the efficacy of 100 μM choline was defined as 100% in the absence of a PAM). The compounds also have a potentiating effect on the response to choline when measured by whole-cell patch clamp electrophysiology in GH4C1 cells stably over-expressing the human wild-type α7 receptor.

| melting point | EC50 (hα7-wt nAChR) | Emax (hα7-wt nAChR) | SMILES |
| --- | --- | --- | --- |
| 204.6 °C |  |  | C[C@@H](O)Cn1nc(Nc2ccc(F)c(C(F)(F)F)c2)nc1-c1ccc(C2CC2)nc1 (as salt: HCl) (hydrate or solvate) [Compound 100] |
| 207.5 °C |  |  | CC(O)Cn1nc(Nc2cccc(OC(F)(F)F)c2)nc1-c1ccnc(C2CC2)c1 (centres unmarked) (as salt: HCl) [Compound 151] |
| 206.2 to 207.1 °C | 251 nM |  | CNC(=O)Cn1nc(Nc2cccc(C(F)(F)F)c2)nc1-c1ccc2c(c1)OCCO2 [Compound 1] |
| 179.1 to 180 °C | 7940 nM |  | OCCn1nc(Nc2cccc(C(F)(F)F)c2)nc1-c1ccncc1 [Compound 2] |
| 164.2 to 174.2 °C | 501 nM |  | CN(C)C(=O)CCn1nc(Nc2cccc(C(F)(F)F)c2)nc1-c1ccncc1 [Compound 4] |
| 213.9 to 215 °C | 200 nM |  | CC(C)NC(=O)Cn1nc(Nc2cccc(C(F)(F)F)c2)nc1-c1ccc2c(c1)OCCO2 [Compound 5] |
| 152.9 to 154.9 °C | 2510 nM |  | Cc1cc(C(=O)NCCCn2nc(Nc3cccc(C(F)(F)F)c3)nc2-c2ccncc2)no1 [Compound 8] |
| 212.9 to 214 °C | > 10000 nM |  | CNC(=O)Cn1nc(Nc2cccc(C(F)(F)F)c2)nc1-c1ccncc1 [Compound 9] |
| 175.2 to 176.5 °C | 2000 nM |  | NC(=O)CCn1nc(Nc2cccc(C(F)(F)F)c2)nc1-c1ccc2c(c1)OCCO2 [Compound 10] |
|  | 794 nM |  | CNC(=O)CCn1nc(Nc2cccc(C(F)(F)F)c2)nc1-c1ccc2c(c1)OCCO2 [Compound 12] |
| 163.4 to 165.2 °C | 5010 nM |  | OCCn1nc(Nc2cc(Cl)ccc2Cl)nc1-c1ccncc1 [Compound 14] |
| 207.2 to 207.9 °C |  |  | COc1cc(OC)c(Nc2nc(-c3ccncc3)n(CCO)n2)cc1Cl [Compound 15] |
| 140.5 to 142 °C |  |  | OCCn1nc(Nc2cc(Cl)ccc2Cl)nc1-c1ccccc1 [Compound 17] |
| 271 to 272.1 °C | > 10000 nM |  | NC(=O)Cn1nc(Nc2cccc(C(F)(F)F)c2)nc1-c1ccncc1 [Compound 19] |
| 225.5 °C | 1260 nM |  | NC(=O)Cn1nc(Nc2cccc(C(F)(F)F)c2)nc1-c1ccc2c(c1)OCCO2 [Compound 21] |
| 196.5 to 197.2 °C |  |  | CC(C)NC(=O)CCn1nc(Nc2cccc(C(F)(F)F)c2)nc1-c1ccncc1 [Compound 22] |
| 184.2 to 188.1 °C | > 10000 nM |  | COCCNC(=O)Cn1nc(Nc2cccc(C(F)(F)F)c2)nc1-c1ccncc1 [Compound 24] |
| 227.2 °C | 794 nM |  | Cc1cc(-c2nc(Nc3ccc4c(c3)OC(F)(F)O4)nn2CC(=O)NCC2CC2)ccn1 [Compound 26] |
| 246.8 °C | 794 nM |  | CNC(=O)Cn1nc(Nc2ccc(F)c(C(F)(F)F)c2)nc1-c1cnc2c(c1)OCC2 [Compound 28] |
| 156.1 °C |  |  | CC(C)(C)OC(=O)CCn1nc(Nc2ccc(F)c(C(F)(F)F)c2)nc1-c1ccnc(C#N)c1 [Compound 29] |

| melting point | EC50 (hα7-wt nAChR) | Emax (hα7-wt nAChR) | SMILES |
| --- | --- | --- | --- |
| 151.6 °C |  |  | CC(C)(C)OC(=O)CCn1nc(Nc2ccc(F)c(C(F)(F)F)c2)nc1-c1ccnc(CN)c1 [Compound 30] |
| 180.7 °C |  |  | O=C(O)CCn1nc(Nc2ccc(F)c(C(F)(F)F)c2)nc1-c1ccnc(Cl)c1 [Compound 31] |
| 216.4 °C | 631 nM |  | CN(C)C(=O)CCn1nc(Nc2ccc3c(c2)OC(F)(F)O3)nc1-c1ccncc1 [Compound 33] |
| 221.6 °C | > 10000 nM |  | CNC(=O)Cn1nc(Nc2cc(F)c(F)c(NC)c2)nc1-c1ccnc(NC)c1 [Compound 35] |
| 277.5 °C | 2510 nM |  | CNC(=O)Cn1nc(Nc2cc(F)c(F)c(F)c2)nc1-c1ccnc(NC)c1 [Compound 36] |
| 188.7 °C | 1260 nM |  | CNc1cc(-c2nc(Nc3ccc(F)c(C(F)(F)F)c3)nn2CCc2noc(C)n2)ccn1 [Compound 37] |
| 165.1 °C | 1000 nM |  | CCNc1cc(-c2nc(Nc3cc(F)c(F)c(F)c3)nn2C[C@H](C)O)ccn1 [Compound 39] |
| 186.1 °C | > 10000 nM | 635% | CNC(=O)c1ccc(-c2nc(Nc3ccc(F)c(F)c3)nn2C[C@H](C)O)cn1 [Compound 41] |
| 146.9 °C | 1000 nM |  | Cc1cc(-c2nc(Nc3ccc(F)c(C(F)(F)F)c3)nn2CCCC(=O)N(C)C)ccn1 [Compound 42] |
| 124.1 °C | 794 nM |  | CC(=O)CCCn1nc(Nc2ccc(F)c(C(F)(F)F)c2)nc1-c1ccnc(C)c1 [Compound 43] |
| 165.8 °C | 1260 nM | 818% | COc1ccc(Nc2nc(-c3ccnc(C4CC4)c3)n(CCF)n2)cc1C(F)(F)F [Compound 44] |
| 219.3 °C | 631 nM |  | Cc1cc(-c2nc(Nc3ccc4c(c3)OC(F)(F)O4)nn2CCC(=O)N(C)C)ccn1 [Compound 45] |
| 244.9 °C | 2000 nM |  | CCNC(=O)Cn1nc(Nc2ccc3c(c2)OC(F)(F)O3)nc1-c1ccnc(C)c1 [Compound 46] |
| 138.1 °C | > 10000 nM |  | CC(=O)CCn1nc(Nc2cccc(C(F)(F)F)c2)nc1-c1ccnc(C)c1 [Compound 47] |
| 169.1 °C | 631 nM |  | Cc1cc(-c2nc(Nc3cccc(C(F)(F)F)c3)nn2CCC(=O)N(C)C)ccn1 [Compound 48] |
| 166.8 °C |  |  | N/C(CCn1nc(Nc2ccc(F)c(C(F)(F)F)c2)nc1-c1ccnc(Cl)c1)=N\O [Compound 55] |
|  | 158 nM |  | CN(C)C(=O)CCn1nc(Nc2ccc(F)c(C(F)(F)F)c2)nc1-c1cnc2c(c1)CCN2 [Compound 58] |
|  | 3980 nM | 772% | CN(C)C(=O)CCn1nc(Nc2ccc(F)c(C(F)(F)F)c2)nc1-c1ccnc(CN)c1 [Compound 60] |
| 155.9 to 157.1 °C |  |  | N#CCCn1nc(Nc2cccc(C(F)(F)F)c2)nc1-c1ccncc1 [Compound 64] |
|  | 2000 nM |  | Cc1noc(CCn2nc(Nc3ccc(F)c(C(F)(F)F)c3)nc2-c2ccncc2)n1 [Compound 69] |

| melting point | EC50 (hα7-wt nAChR) | Emax (hα7-wt nAChR) | SMILES |
| --- | --- | --- | --- |
|  | 1260 nM |  | O=C(CCn1nc(Nc2cccc(C(F)(F)F)c2)nc1-c1ccncc1)N1CCOCC1 [Compound 86] |
|  | 3160 nM | 764% | COCCNc1ccc(-c2nc(Nc3ccc(F)c(C(F)(F)F)c3)nn2CCO)cn1 [Compound 93] |
|  | 2000 nM | 899% | OCCn1nc(Nc2ccc(F)c(C(F)(F)F)c2)nc1-c1ccc(NC2CC2)nc1 [Compound 95] |
|  | 1000 nM |  | CCNc1cc(-c2nc(Nc3ccc(F)c(C(F)(F)F)c3)nn2C[C@H](C)O)ccn1 [Compound 99] |
|  | 631 nM |  | C[C@H](O)Cn1nc(Nc2ccc(F)c(C(F)(F)F)c2)nc1-c1ccc(C2CC2)nc1 [Compound 101] |
|  | 2000 nM |  | C[C@H](O)Cn1nc(Nc2ccc(F)c(C(F)(F)F)c2)nc1-c1ccnc(C2CC2)c1 [Compound 102] |
|  | 2510 nM |  | C[C@H](O)Cn1nc(Nc2ccc(F)c(C(F)(F)F)c2)nc1-c1cnc2ccoc2c1 [Compound 106] |
|  | 1580 nM |  | CC(C)(C)NC(=O)CCn1nc(Nc2ccc(F)c(C(F)(F)F)c2)nc1-c1ccncc1 [Compound 137] |
|  | 100 nM |  | CCNC(=O)Cn1nc(Nc2cc(Br)cc(C(F)(F)F)c2)nc1-c1ccc(OC)c(OCc2ccccc2)c1 [Compound 142] |
|  | > 10000 nM | 864% | COc1cc(Nc2nc(-c3ccnc(NCCO)c3)n(CC(=O)NCCO)n2)cc(C(F)(F)F)c1 [Compound 147] |
|  | 1000 nM | 704% | CCNc1cnccc1-c1nc(Nc2cccc(OC(F)(F)F)c2)nn1CC(C)O (centres unmarked) [Compound 149] |
|  | 2000 nM |  | CC(O)Cn1nc(Nc2cccc(OC(F)(F)F)c2)nc1-c1ccnc(C2CC2)c1 (centres unmarked) [Compound 151] |
|  | 1580 nM | 550% | CN(C)CCNC(=O)Cn1nc(Nc2cccc(OC(F)(F)F)c2)nc1-c1ccc2c(c1)OCCO2 [Compound 161] |
|  | 501 nM |  | C[C@H](O)Cn1nc(Nc2cc(F)c(F)c(F)c2)nc1-c1ccnc(NC2CC2)c1 [Compound 173] |
|  | 79.4 nM |  | CN(C)C(=O)CCn1nc(Nc2cccc(Cl)c2)nc1-c1ccc2c(c1)OCCO2 [Compound 195] |
|  | 126 nM |  | COc1ccc(Cl)cc1Nc1nc(-c2ccc3c(c2)OCCO3)n(CCC(=O)N(C)C)n1 [Compound 197] |
|  | > 10000 nM |  | Cc1cc(-c2nc(Nc3ccc4c(c3)OC(F)(F)O4)nn2CC(C)O)ccn1 (centres unmarked) [Compound 198] |
|  | 1000 nM |  | CN(C)C(=O)CCn1nc(N2CCc3ccc(C(F)(F)F)cc32)nc1-c1ccc2c(c1)OCCO2 [Compound 211] |
